Activity calls are given as the source filed them.
Key:
[1] = biological target: T1, Alkaline phosphatase, tissue-nonspecific isozyme (Homo sapiens, UniProt P05186); test: potency against alkaline phosphatase TNAP – biochemical, luminescent, dose response, SAR follow-up (AID 1056)
T1 sequence (P05186 whole entry): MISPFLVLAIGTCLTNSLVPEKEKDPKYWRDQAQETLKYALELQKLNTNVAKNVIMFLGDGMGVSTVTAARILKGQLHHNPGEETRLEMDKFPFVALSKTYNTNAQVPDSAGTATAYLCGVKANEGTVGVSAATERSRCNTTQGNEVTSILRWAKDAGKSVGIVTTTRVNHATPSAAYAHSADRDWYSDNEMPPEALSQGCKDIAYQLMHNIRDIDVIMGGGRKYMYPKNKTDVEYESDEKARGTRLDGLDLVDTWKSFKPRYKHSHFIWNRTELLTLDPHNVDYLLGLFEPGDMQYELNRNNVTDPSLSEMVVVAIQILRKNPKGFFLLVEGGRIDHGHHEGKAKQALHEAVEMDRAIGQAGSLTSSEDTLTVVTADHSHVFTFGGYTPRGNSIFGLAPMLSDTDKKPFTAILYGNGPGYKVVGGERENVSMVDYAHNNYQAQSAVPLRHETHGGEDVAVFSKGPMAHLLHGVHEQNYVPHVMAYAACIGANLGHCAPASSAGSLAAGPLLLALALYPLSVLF

[2] = biological target: DNA dC->dU-editing enzyme APOBEC-3A (Homo sapiens, UniProt P31941); test: Dose Response confirmation of small molecule APOBEC3A DNA Deaminase Inhibitors via a fluorescence-based single-stranded DNA deaminase assay. [Related pubchem assays (depositor defined):AID493011, AID493024]; type: functional
[3] = biological target: DNA dC->dU-editing enzyme APOBEC-3G (Homo sapiens, UniProt Q9HC16); type: functional;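 further: Dose-response counterscreen measuring inhibition of APOBEC3G DNA deaminase activity, run while confirming APOBEC3A inhibitors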
[4] = biological target: Nucleotide-binding oligomerization domain-containing protein 2 (Homo sapiens, UniProt Q9HC29); test: inhibition of NOD2-driven NF-kB reporter – cell-based, luminescence, uHTS, HEK293 (AID 1566); type: functional
HEK293 [5] = test: cells; type: functional, cell-based; settings: Homo sapiens
HEK293 [6] = test: cells; type: functional, cell-based; settings: Homo sapiens; remark: listed apart in the source
[7] = NIH-3T3 fibroblast cytotoxicity, dose response, cytotoxicity control, cell-based, fluorescence, Alamar Blue, secondary assay (AID 2327); type: functional;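 further: NIH-3T3 mouse fibroblasts cultured with fluconazole at 8 µg/mL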
[8] = fluconazole-exposed Candida albicans growth modulators – fluorescence, retest, confirmation (AID 2467); type: functional, cell-based
HEK293 [9] = test: NOD2 signaling inhibitors in MDP-stimulated cells, cell-based, uHTS, luminescence (AID 2001); type: functional; settings: Homo sapiens
HEK293 [10] = test: inhibition of NOD1-driven NF-kB reporter – cell-based, luminescence, uHTS, primary screen (AID 1578); type: functional; settings: Homo sapiens
[11] = biological target: T2, Rac GTPase-activating protein 1 (Homo sapiens, UniProt Q9H0H5); test: blockers of MgcRacGAP-driven Rac1 GTP hydrolysis – biochemical, ADP Hunter fluorescence, primary and confirmatory, confirmation (AID 624330); type: functional
T2 sequence (Q9H0H5 whole entry): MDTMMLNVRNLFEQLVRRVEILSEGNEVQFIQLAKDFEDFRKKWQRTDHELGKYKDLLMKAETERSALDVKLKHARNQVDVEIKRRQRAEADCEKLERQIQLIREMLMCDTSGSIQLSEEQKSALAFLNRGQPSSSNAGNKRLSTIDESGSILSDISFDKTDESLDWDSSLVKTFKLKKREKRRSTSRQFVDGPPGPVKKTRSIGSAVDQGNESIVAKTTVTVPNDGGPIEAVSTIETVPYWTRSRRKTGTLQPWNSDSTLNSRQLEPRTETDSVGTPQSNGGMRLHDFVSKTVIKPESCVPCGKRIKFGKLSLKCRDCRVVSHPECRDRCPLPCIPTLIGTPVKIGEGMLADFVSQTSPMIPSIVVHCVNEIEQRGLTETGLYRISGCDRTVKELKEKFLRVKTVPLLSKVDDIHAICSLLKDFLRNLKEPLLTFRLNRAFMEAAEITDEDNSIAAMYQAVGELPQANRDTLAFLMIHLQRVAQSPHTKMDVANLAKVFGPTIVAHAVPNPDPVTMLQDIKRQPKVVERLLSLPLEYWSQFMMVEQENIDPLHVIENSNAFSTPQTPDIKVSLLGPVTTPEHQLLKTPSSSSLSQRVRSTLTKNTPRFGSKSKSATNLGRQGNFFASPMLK

HEK293 [12] = test: cells; type: functional, cell-based; settings: Homo sapiens; remark: listed apart in the source
Coagulation factor XII = biological target: T3, Coagulation factor XII (Homo sapiens, UniProt P00748); type: functional;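 further: activated factor XIIa alpha cleaving a fluorogenic AMC peptide substrate; inhibitor potency from loss of enzyme activity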
T3 sequence (P00748 whole entry): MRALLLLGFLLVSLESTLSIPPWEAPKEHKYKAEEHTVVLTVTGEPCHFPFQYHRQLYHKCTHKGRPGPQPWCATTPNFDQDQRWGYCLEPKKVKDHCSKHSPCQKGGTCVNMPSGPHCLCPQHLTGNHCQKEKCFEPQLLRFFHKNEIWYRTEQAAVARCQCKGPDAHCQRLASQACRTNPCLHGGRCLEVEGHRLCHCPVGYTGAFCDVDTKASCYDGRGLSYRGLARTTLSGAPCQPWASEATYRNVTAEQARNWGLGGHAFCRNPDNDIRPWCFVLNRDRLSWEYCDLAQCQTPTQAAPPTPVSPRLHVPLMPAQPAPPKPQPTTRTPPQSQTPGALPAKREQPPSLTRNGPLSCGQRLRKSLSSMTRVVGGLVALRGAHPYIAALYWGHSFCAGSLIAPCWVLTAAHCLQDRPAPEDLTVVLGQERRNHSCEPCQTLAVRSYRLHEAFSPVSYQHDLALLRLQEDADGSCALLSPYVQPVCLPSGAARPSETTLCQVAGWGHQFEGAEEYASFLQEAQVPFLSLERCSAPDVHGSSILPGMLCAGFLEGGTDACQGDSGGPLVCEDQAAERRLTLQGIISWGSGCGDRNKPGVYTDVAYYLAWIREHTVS

[13] = biological target: G-protein coupled receptor 55 (Homo sapiens, UniProt Q9Y2T6); test: inhibition of LPI-stimulated GPR55 beta-arrestin translocation – imaging, U2OS, beta-arrestin-GFP, LPI agonist, primary screen (AID 2013); type: functional;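 further: antagonist potency measured as reduced agonist-driven arrestin aggregation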
G-protein coupled receptor 55, sequence (Q9Y2T6 whole entry): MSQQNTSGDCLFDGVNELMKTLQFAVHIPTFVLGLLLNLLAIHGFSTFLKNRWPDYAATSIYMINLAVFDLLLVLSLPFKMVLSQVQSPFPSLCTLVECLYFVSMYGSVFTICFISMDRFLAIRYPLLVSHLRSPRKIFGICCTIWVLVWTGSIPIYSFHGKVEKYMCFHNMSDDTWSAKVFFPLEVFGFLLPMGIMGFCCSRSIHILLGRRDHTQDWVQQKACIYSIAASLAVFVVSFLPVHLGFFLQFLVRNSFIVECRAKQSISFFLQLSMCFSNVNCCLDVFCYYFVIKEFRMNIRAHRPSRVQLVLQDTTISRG

DNA dC->dU-editing enzyme APOBEC-3G, sequence (Q9HC16 whole entry, the tested form may be a part): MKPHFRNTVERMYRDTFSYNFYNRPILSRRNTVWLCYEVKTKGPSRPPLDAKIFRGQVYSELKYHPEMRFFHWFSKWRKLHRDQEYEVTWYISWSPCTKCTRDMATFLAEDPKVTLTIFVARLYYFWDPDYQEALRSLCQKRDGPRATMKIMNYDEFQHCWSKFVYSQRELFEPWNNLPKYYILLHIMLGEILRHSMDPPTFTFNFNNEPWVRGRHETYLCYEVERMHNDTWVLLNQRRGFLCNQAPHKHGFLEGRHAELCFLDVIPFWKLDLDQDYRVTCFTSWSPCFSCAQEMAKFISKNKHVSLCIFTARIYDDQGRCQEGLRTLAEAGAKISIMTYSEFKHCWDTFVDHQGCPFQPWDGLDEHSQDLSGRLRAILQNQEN
Nucleotide-binding oligomerization domain-containing protein 2, sequence (Q9HC29 whole entry, the tested form may be a part): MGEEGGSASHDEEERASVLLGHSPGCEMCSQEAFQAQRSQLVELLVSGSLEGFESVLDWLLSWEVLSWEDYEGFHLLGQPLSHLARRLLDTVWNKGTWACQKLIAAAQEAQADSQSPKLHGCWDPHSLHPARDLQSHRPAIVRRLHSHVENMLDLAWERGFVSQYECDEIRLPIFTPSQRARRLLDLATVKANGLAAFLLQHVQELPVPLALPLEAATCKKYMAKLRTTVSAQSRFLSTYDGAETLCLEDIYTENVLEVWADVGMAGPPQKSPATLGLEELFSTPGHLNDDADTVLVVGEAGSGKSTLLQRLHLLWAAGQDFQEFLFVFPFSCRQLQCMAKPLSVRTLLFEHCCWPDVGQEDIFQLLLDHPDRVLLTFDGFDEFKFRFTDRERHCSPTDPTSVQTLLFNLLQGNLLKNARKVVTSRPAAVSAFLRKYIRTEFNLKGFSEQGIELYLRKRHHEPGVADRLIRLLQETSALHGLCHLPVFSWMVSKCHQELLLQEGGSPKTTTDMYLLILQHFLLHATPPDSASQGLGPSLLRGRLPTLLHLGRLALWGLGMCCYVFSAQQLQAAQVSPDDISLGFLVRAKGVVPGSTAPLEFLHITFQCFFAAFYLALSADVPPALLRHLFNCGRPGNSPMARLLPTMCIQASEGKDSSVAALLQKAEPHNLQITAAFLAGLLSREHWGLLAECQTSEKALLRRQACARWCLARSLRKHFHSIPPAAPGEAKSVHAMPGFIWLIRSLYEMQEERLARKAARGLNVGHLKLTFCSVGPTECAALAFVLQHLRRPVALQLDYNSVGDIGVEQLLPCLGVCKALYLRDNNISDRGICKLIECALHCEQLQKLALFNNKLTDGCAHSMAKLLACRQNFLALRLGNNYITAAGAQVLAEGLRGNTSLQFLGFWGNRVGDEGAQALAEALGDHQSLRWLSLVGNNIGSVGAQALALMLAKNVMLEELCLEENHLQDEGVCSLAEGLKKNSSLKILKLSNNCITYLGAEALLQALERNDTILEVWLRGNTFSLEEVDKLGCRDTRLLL
DNA dC->dU-editing enzyme APOBEC-3A, sequence (P31941 whole entry): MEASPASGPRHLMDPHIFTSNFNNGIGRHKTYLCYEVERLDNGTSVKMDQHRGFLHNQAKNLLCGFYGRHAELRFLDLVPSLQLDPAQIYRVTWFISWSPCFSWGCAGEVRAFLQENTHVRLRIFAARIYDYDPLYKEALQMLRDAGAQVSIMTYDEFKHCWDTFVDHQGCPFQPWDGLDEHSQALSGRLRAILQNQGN

For `O=C(Cn1ccnc1-c1ccccc1)c1ccc(O)c(O)c1`, the IC50 [1] was > 100 µM (inactive).

With `O=C(/C=C/c1ccco1)N1CCN(S(=O)(=O)c2cccc([N+](=O)[O-])c2)CC1` the IC50 [2] was 15.5 µM (active) and the IC50 [3] was 23.6 µM (active).

In the case of `Cc1ccc(O)c(/N=C/c2cc(Cc3ccccc3)cc([N+](=O)[O-])c2O)c1`, the EC50 [4] is reported as 9.92 µM (active), the IC50 (HEK293 [5]) is reported as > 20 µM (inactive) and the IC50 (HEK293 [6]) is reported as > 20 µM (inactive). For the same compound, the EC50 [7] was 13.8 µM (active), the EC50 [8] was 3.37 µM (active) and the IC50 (HEK293 [9]) was 12.4 µM (inactive). The EC50 (HEK293 [10]) was 6.21 µM (active), the IC50 [11] was 37.8 µM (active) and the IC50 (HEK293 [12]) was > 20 µM (inactive).

For `CCNc1ccc2c(Cl)cc(=O)oc2c1`, the IC50 (Coagulation factor XII) was > 50 µM (inactive).

With `CCc1c(C)nc2ncnn2c1N1CCC(C(=O)Nc2ccccc2)CC1` the IC50 (Coagulation factor XII) was > 50 µM (inactive).

With `CNC(=O)c1ccc(NC(=O)CC23CC4CC(CC(C4)C2)C3)cc1` the IC50 [13] was 3.14 µM (active).

For `Cc1ccc(S(=O)(=O)/C(=C/Cl)NC(=O)c2ccccc2)cc1`, the EC50 [4] was 14.3 µM (active), the IC50 (HEK293 [5]) was 3.6 µM (active) and the IC50 (HEK293 [6]) was > 20 µM (inactive). The IC50 (HEK293 [9]) was 3.32 µM (active), the EC50 (HEK293 [10]) was 6.37 µM (active) and the IC50 (HEK293 [12]) was > 20 µM (inactive).

With `CCCCn1c(N)c(N(CCOC)C(=O)c2cc(-c3ccc(OC)c(OC)c3)nc3ccccc23)c(=O)[nH]c1=O` the IC50 [2] was 7.62 µM (active) and the IC50 [3] was 9.16 µM (active).

— ChEMBL document CHEMBL1201862, “PubChem BioAssay data set” (2004)
